Patent US5114961A, “2,5-diaryl tetrahydrofurans and analogs thereof as PAF antagonists” (Merck & Co., Inc., priority 1990, dated 1992)

These compounds were tested against T1, PAF specific receptor binding site (human platelet membranes) (Homo sapiens, UniProt P25105) (assay: Inhibition of [3H]N-methylcarbamoyl-PAF binding to human platelet membranes). Settings: drug concentration of 3 nM, trans configuration.
T1 construct: platelet membranes at a drug concentration of 3 nM; from tissue; host or cells: human platelet plasma membranes
Protocol: The ability of a compound of formula (I) to inhibit the PAF binding to its specific receptor binding site on rabbit or human platelet or PMN plasma membranes was measured by a recently developed assay.
The inhibition of ^3 [H]-PAF or ^3 [H]-N-methyl carbamoyl-TAF binding to the human or rabbit platelet or PMN plasma membrane by a PAF antagonist of formula (I) was determined by a method employing isotopic labeling and filtration techniques. Generally, a series of Tris-buffered solutions of the selected antagonist at predetermined concentrations were prepared. Each of these solutions contains 1 pmole of ^3 H-PAF, a known amount of the test antagonist, and a sufficient amount of the pH 7.5 Tris-buffer solution (10mM Tris, 0.25% bovine serum albumin, and 150 mM NaCl per ml water) to make the final volume of 1 ml. After adding into a set of test tubes each with 100 μg of the platelet plasma membrane suspension (S. B. Hwang, et. al., Biochemistry, Vol. 22 pp. 4756-4763, 1983) and one of the Tris-buffer solutions described above, the resulting mixture in each test tube was incubated at 0° C. for about one hours or until the reaction was complete. Two control samples, one of which (C1) contains all the ingredients described above except the antagonist and the other (C2) contains C1 plus a 100-fold excess of unlabeled PAF, were also prepared and incubated simultaneously with the test samples. After the incubation was completed, the contents of each test tube were filtered under vacuo through a Whatman GF/C fiberglass filter and the residue washed rapidly several times with a total of 20 ml cold (0°-5° C.) Tris-buffer solution. Each washed residue was then suspended in 10 ml scintillation solution (Aquasol 2, New England Nuclear, Conn.) and the radioactivity was counted in a Packard Tri-Carb 460CD Liquid Scintillation System. Defining the counts from a test sample as "Total binding with antagonist"; the counts from the control sample C1, as "Total binding C1 "; and the counts from the control sample C2 as "non-specific binding C2 ", the percent inhibition of each test antagonist can be determined by the following equations: [formula]

T1 sequence (P25105 whole entry): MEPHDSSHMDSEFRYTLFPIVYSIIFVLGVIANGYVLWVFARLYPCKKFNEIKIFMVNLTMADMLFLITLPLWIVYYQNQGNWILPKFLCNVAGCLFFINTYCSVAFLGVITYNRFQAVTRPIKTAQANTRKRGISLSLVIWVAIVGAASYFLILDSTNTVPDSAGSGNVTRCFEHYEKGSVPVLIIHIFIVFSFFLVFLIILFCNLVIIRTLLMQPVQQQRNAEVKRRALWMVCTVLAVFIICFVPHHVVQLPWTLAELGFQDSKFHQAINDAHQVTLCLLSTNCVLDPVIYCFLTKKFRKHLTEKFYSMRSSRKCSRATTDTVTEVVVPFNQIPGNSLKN

Row | SMILES | inhibition at 0.003 µM [%]
1 | CCCOc1c(OCCSc2ncc[nH]2)cc([C@H]2CC[C@H](c3cc(OC)c(OC)c(OC)c3)O2)cc1S(=O)(=O)CC(C)O (relative stereo) [trans-2-[3-(2-Hydroxy-n-propylsulfonyl)-4-n-propoxy-5-{2-(2-imidazolylthio)ethoxy}phenyl]-5-(3,4,5-trimethoxyphenyl)tetrahydrofuran] | 34
2 | CCCOc1c(OCCCSc2nc[nH]n2)cc([C@@H]2CC[C@@H](c3cc(OC)c(OC)c(OC)c3)O2)cc1S(=O)(=O)CC(C)O (relative stereo) [trans-2-[3-(2-Hydroxy-n-propylsulfonyl)-4-n-propoxy-5-{3-(1H-1,2,4-triazolyl-3-thio)propoxy}phenyl]-5-(3,4,5-trimethoxyphenyl)tetrahydrofuran] | 61
3 | CCCOc1cc([C@@H]2CC[C@@H](c3cc(OC)c(OC)c(OC)c3)O2)cc(S(=O)(=O)CCN2CCCC2)c1OCCC (relative stereo) [trans-2-[3-(2-N-Pyrrolidinylethylsulfonyl)-4,5-dipropoxyphenyl]-5-(3,4,5-trimethoxyphenyl) tetrahydrofuran] | 18
4 | CCCOc1c(OCCN2CCOCC2)cc([C@@H]2CC[C@@H](c3cc(OC)c(OC)c(OC)c3)O2)cc1S(=O)(=O)CC(C)O (relative stereo) [trans-2-[3-(2-Hydroxypropylsulfonyl)-4-n-propoxy-5-{2-(1-morpholino)-n-ethoxy}phenyl]-5-(3,4,5-trimethoxyphenyl)tetrahydrofuran] | 20
5 | CCCOc1cc([C@@H]2CC[C@@H](c3cc(OC)c(OC)c(OC)c3)O2)cc(S(=O)(=O)CCN2CCOCC2)c1OCCC (relative stereo) [trans-2-[3-(2-N-Morpholinoethylsulfonyl)-4,5-di-n-propoxyphenyl]-5-(3,4,5-trimethoxyphenyl)tetrahydrofuran] | 17
6 | CCCOc1c(OCCCn2ccnc2)cc([C@H]2CC[C@H](c3cc(OC)c(OC)c(OC)c3)O2)cc1S(=O)(=O)CC(C)O (relative stereo) [trans-2-[3-(2-Hydroxy-n-propylsulfonyl)-4-n-propoxy-5-{3-(1-imidazolyl)propoxy}phenyl]-5-(3,4,5-trimethoxyphenyl)tetrahydrofuran] | 41
7 | CCCOc1c(OCCCN2CCOCC2)cc([C@@H]2CC[C@@H](c3cc(OC)c(OC)c(OC)c3)O2)cc1S(=O)(=O)CC(C)=O [(-)-(2S,5S)-[3-(2-Oxopropylsulfonyl)-4-n-propoxy-5-{3-(1-morpholino)-n-propoxy}phenyl]-5-(3,4,5-trimethoxyphenyl)tetrahydrofuran] | 41
8 | CCCOc1c(OCCN2CCNCC2)cc([C@@H]2CC[C@@H](c3cc(OC)c(OC)c(OC)c3)O2)cc1S(=O)(=O)CC(C)=O (relative stereo) | 34
9 | CCCOc1c(OCCN2CCOCC2)cc([C@@H]2CC[C@@H](c3cc(OC)c(OC)c(OC)c3)O2)cc1S(=O)(=O)CC(C)=O (relative stereo) [trans-2-[3-(2-Oxopropylsulfonyl)-4-n-propoxy-5-{2-(1-morpholino)-ethoxy}phenyl]-5-(3,4,5-trimethoxyphenyl)tetrahydrofuran] | 25
10 | CCCOc1c(OCCCCn2ccnc2)cc([C@H]2CC[C@H](c3cc(OC)c(OC)c(OC)c3)O2)cc1S(=O)(=O)CC(C)O (relative stereo) [trans-2-[3-(2-Hydroxy-n-propylsulfonyl)-4-n-propoxy-5-{4-(1-imidazolyl)butoxy}phenyl]-5-(3,4,5-trimethoxyphenyl)tetrahydrofuran] | 43
11 | CCCOc1c(OCCn2ccnc2)cc([C@@H]2CC[C@@H](c3cc(OC)c(OC)c(OC)c3)O2)cc1S(=O)(=O)CC(C)O (relative stereo) [trans-2-[3-(2-Hydroxy-n-propylsulfonyl-4-n-propoxy-5-{2-(1-imidazolyl)ethoxy}phenyl]-5-(3,4,5-trimethoxyphenyl)tetrahydrofuran] | 48
12 | CCCOc1c(OCCCCSc2ncc[nH]2)cc([C@H]2CC[C@H](c3cc(OC)c(OC)c(OC)c3)O2)cc1S(=O)(=O)CC(C)=O (relative stereo) [trans-2-[3-(2-Oxopropylsulfonyl)-4-n-propoxy-5-{4-(2-imidazolylthio)butoxy}phenyl]-5-(3,4,5-trimethoxyphenyl)tetrahydrofuran] | 60

Further lines, results first:

Row | inhibition at 0.003 µM [%] | SMILES
13 | 55 | CCCS(=O)(=O)c1cc([C@@H]2CC[C@@H](c3cc(OC)c(OC)c(OC)c3)O2)cc(OCCN2CCOCC2)c1OCCCCCCO (relative stereo) [trans-2-[3-n-Propylsulfonyl-4-(6-hydroxy-n-hexyloxy)-5-{2-(1-morpholino)-ethoxy}phenyl]5-(3,4,5-trimethoxyphenyl)tetrahydrofuran]
14 | 29 | CCCOc1c(OCCN2CCCC2)cc([C@@H]2CC[C@@H](c3cc(OC)c(OC)c(OC)c3)O2)cc1S(=O)(=O)CC(C)=O (relative stereo) [trans-2-[3-(2-Oxopropylsulfonyl)-4-n-propoxy-5-{2-(1-pyrrolidino)-ethoxy}phenyl]-5-(3,4,5-trimethoxyphenyl)tetrahydrofuran]
15 | 73 | CCCS(=O)(=O)c1cc([C@@H]2CC[C@@H](c3cc(OC)c(OC)c(OC)c3)O2)cc(OC)c1OCCS(=O)(=O)c1ccccc1 (relative stereo) [trans-2-[3-n-Propylsulfonyl-4-{2-(Phenylsulfonyl)ethoxy}-5-methoxyphenyl]-5-(3,4,5-trimethoxyphenyl(tetrahydrofuran]
16 | 60 | CCCS(=O)(=O)c1cc([C@H]2CC[C@H](c3cc(OC)c(OC)c(OC)c3)O2)cc(OC)c1OCCSc1ccc(C(=N)N)cc1 (relative stereo) [trans-2-[3-n-Propylsulfonyl-4-{2-(4-amidinophenylthio)ethoxy}-5-methoxyphenyl]-5-(3,4,5-trimethoxyphenyl)tetrahydrofuran]
17 | 66 | CCCS(=O)(=O)c1cc([C@H]2CC[C@H](c3cc(OC)c(OC)c(OC)c3)O2)cc(OC)c1OCCSc1ccc(N(C)C)cc1 (relative stereo) [trans-2-[3-n-Propylsulfonyl-4-{2-(4-dimethylaminophenylthio)ethoxy}-5-methoxyphenyl]-5-(3,4,5-trimethoxyphenyl)tetrahydrofuran]
18 | 73 | CCCS(=O)(=O)c1cc([C@H]2CC[C@H](c3cc(OC)c(OC)c(OC)c3)O2)cc(OC)c1OCCSc1ccncc1 (relative stereo) [trans-2-[3-n-Propylsulfonyl-4-{2-(4-pyridylthio)ethoxy}-5-methoxyphenyl]-5-(3,4,5-trimethoxyphenyl) tetrahydrofuran]
19 | 62 | CCCOc1c(OCCCc2cccnc2)cc([C@H]2CC[C@H](c3cc(OC)c(OC)c(OC)c3)O2)cc1S(=O)(=O)CC(C)=O (relative stereo) [trans-2-{3-(2-Oxopropylsulfonyl)-4-n-propoxy-5-[3-(3-pyridyl)propoxy}phenyl]-5-(3,4,5-trimethoxyphenyl) tetrahydrofuran]
20 | 52 | CCCS(=O)(=O)c1cc([C@@H]2CC[C@@H](c3cc(OC)c(OC)c(OC)c3)O2)cc(OC)c1OCCSc1ccc(-c2nn[nH]n2)cc1 (relative stereo) [trans-2-[3-n-Propylsulfonyl-4-{2-(4-(2-tetrazo)phenylthio)ethoxy}-5-methoxyphenyl]-5-(3,4,5-trimethoxyphenyl)tetrahydrofuran]
21 | 23 | CCCS(=O)(=O)c1cc([C@@H]2CC[C@@H](c3cc(OC)c(OC)c(OC)c3)O2)cc(OC)c1OCCSc1nc[nH]n1 (relative stereo) [trans-2-[3-n-Propylsulfonyl-4-{2-(3-triazolthio)ethoxy}-5-methoxyphenyl]-5-(3,4,5-trimethoxyphenyl) tetrahydrofuran]
22 | 48 | CCCS(=O)(=O)c1cc([C@@H]2CC[C@@H](c3cc(OC)c(OC)c(OC)c3)O2)cc(OCCCN2CCOCC2)c1OCCCCCCO (relative stereo) [trans-2-]3-n-Propylsulfonyl-4-(6-hydroxyhexyloxy)-5-{3-(1-morpholino)n-propoxy}phenyl]-5-trimethoxyphenyl)tetrahydrofuran]
23 | 60 | CCCS(=O)(=O)c1cc([C@@H]2CC[C@@H](c3cc(OC)c(OC)c(OC)c3)O2)cc(OC)c1OCCSc1ncc[nH]1 (relative stereo) [trans-2-[3-n-Propylsulfonyl-4-{2-(2-imidazolthio)ethoxy}-5-methoxyphenyl]-5-(3,4,5-trimethoxyphenyl) tetrahydrofuran]
24 | 45 | CCCOc1c(OCCCSc2ncc[nH]2)cc([C@H]2CC[C@H](c3cc(OC)c(OC)c(OC)c3)O2)cc1S(=O)(=O)CC(C)=O (relative stereo) [trans-2-[3-(2-Oxopropylsulfonyl)-4-n-propoxy-5-{3-(2-imidazolylthio)propoxy}phenyl]-5-(3,4,5-trimethoxyphenyl)tetrahydrofuran]
